Assay results: patent publication US12252481B2, “Anti-viral compounds” (Aligos Therapeutics, Inc., priority 2021, dated 2025)
Like-named read-outs stand apart in the source and are kept apart here.

What was measured:
HRV3C = target: T1, HRV3C (Human rhinovirus 14, UniProt P03303); assay: biochemical; parameters: species or system HRV; settings: HRV3C, 30 mins preincubation, SAMDI-MS; read-out: HRV IC50 (bound)
T1 construct: 3CLpro and HRV3C was added using a Multidrop Combi

[1] = test system: human beta-coronavirus OC43; assay: OC43 coronavirus antiviral assay in HeLa cells (cytopathic effect, cell-titer-glo); type: cell-based; settings: Betacoronavirus 1, OC43, HeLa, 144 h, 6 days at 33° C.
human cathepsin L = target: T2, human cathepsin L (Homo sapiens, UniProt P07711); assay: Cathepsin L assay (Z-FR-AMC fluorescence); type: biochemical; settings: 10 pM human cathepsin L, 30 mins preincubation, Z-FR-AMC 2 μM
T2 construct: purchased R&D Systems
T2 sequence (P07711 114-333): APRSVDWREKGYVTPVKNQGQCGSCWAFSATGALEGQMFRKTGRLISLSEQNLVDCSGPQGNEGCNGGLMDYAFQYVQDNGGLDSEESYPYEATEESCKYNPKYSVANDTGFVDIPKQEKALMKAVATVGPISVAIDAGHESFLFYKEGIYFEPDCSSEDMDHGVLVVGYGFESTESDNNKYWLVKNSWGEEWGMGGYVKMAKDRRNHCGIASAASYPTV
Procedure: For the cathepsin L assay, 10 pM of human cathepsin L (R&D Systems; Minneapolis, MN) was preincubated for 30 mins with test compounds. Reactions were initiated by the addition of a peptide substrate Z—FR-AMC (final concentration 2 μM, Anaspec; Fremont, CA). Fluorescence was measured at 2-minute intervals for 30 mins using a 355/460 excitation/emission filter module on an Envision plate reader (Perkin Elmer; Waltham, MA). The IC50 values were calculated for each assay by fitting the curves using a four-parameter equation in GraphPad Prism.

SARS-Cov-2 3CLpro = target: T3, SARS-Cov-2 3CLpro (Severe acute respiratory syndrome coronavirus 2, UniProt P0DTD1); assay: biochemical; settings: 3CLpro, 30 mins preincubation, SAMDI-MS
T3 construct: 3CLpro and HRV3C was added using a Multidrop Combi

[2] = test system: B.1.1.7 lineage SARS-CoV-2; assay: microbe, parasite or virus in culture; type: cell-based; settings: Severe acute respiratory syndrome coronavirus 2, 96 h, read-out: A549-dual_ACE2_TMPRSS2 (EC50)
[3] = read-out: SARS-Cov-2 IC50 (class)

T1 sequence (P03303 1538-1719): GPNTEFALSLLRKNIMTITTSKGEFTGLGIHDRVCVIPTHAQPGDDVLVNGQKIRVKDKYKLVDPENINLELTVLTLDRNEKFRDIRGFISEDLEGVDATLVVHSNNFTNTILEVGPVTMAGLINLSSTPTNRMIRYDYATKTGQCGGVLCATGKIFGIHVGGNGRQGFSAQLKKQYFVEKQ

| Structure (SMILES) | IC50 (HRV3C) [nM] | EC50 ([1]; read-out: EC50 (class)) [nM] | IC50 (human cathepsin L) [nM] | IC50 (SARS-Cov-2 3CLpro; [3]) [nM] | EC50 [2] [nM] | EC50 ([1]; read-out: EC50 (bound)) [nM] | IC50 (SARS-Cov-2 3CLpro; read-out: SARS-Cov-2 IC50 (bound)) [nM] | EC50 ([2]; […], numeric bounds given instead of class symbols) [nM] |
| --- | --- | --- | --- | --- | --- | --- | --- | --- |
| CC(C)(C)[C@H](NC(=O)C(F)(F)F)C(=O)N1C[C@@H]2[C@H]3CC[C@H](CC3)[C@@H]2[C@H]1C(=O)N[C@H](C#N)C[C@@H]1CCNC1=O (mixture of isomers) [Compound 71] | > 10000 | 100 to 1000 | ≥ 10000 | < 20 | < 100 |  |  |  |
| CC(C)(C)[C@H](NC(=O)C(F)(F)F)C(=O)N1C[C@H]2[C@@H]([C@H]1C(=O)N[C@H](C#N)CC1CC3(CC(F)(F)C3)NC1=O)[C@H]1C=C[C@@H]2C1 (mixture of isomers) [Example 83, (1R,2S,3S,6R,7S)—N-[(1S)-1-cyano-2-{2,2-difluoro-6-oxo-5-azaspiro[3.4]octan-7-yl}ethyl]-4-[(2S)-3,3-dimethyl-2-(2,2,2-trifluoroacetamido)butanoyl]-4-azatricyclo[5.2.1.0^{2,6}]dec-8-ene-3-carboxamide] | > 10000 | < 100 | ≥ 10000 | < 20 | < 100 |  |  |  |
| CC(C)(C)[C@H](NC(=O)C(F)(F)F)C(=O)N1C[C@@H]2[C@@H]([C@@H]3CC[C@H]2O3)[C@@H]1C(=O)N[C@H](C#N)C[C@@H]1CCNC1=O (relative stereo) [Compound 58a] | > 10000 |  | ≥ 10000 |  |  | > 10000 | > 10000 | > 10000 |
| CC(C)(C)[C@H](NC(=O)C(F)(F)F)C(=O)N1C[C@H]2[C@@H]([C@H]1C(=O)N[C@H](C#N)C[C@@H]1CCNC1=O)[C@H]1CC[C@@H]2O1 (relative stereo) [Compound 58b] | > 10000 | 1000 to 10000 | ≥ 10000 | 200 to 2000 | 1000 to 10000 |  |  |  |
| CC(C)(C)[C@H](NC(=O)C(F)(F)F)C(=O)N1C[C@@H]2[C@@H]([C@@H]3C=C[C@H]2CC3)[C@@H]1C(=O)N[C@H](C#N)C[C@@H]1CCNC1=O (relative stereo) [Compound 59a, (1R*,3aS*,4R*,7S*,7aR*)-N-((S)-1-cyano-2-((S)-2-oxopyrrolidin-3-yl)ethyl)-2-((S)-3,3-dimethyl-2-(2,2,2-trifluoroacetamido)butanoyl)-2,3,3a,4,7,7a-hexahydro-1H-4,7-ethanoisoindole-1-carboxamide] | > 10000 |  | ≥ 10000 | 200 to 2000 | 1000 to 10000 | > 10000 |  |  |
| CC(C)(C)[C@H](NC(=O)C(F)(F)F)C(=O)N1C[C@H]2[C@@H]([C@H]1C(=O)N[C@H](C#N)C[C@@H]1CCNC1=O)[C@H]1C=C[C@@H]2C1F (stereo in doubt) [Example 91, (1S,3aS,4S,7R,7aR,8S)—N-((S)-1-cyano-2-((S)-2-oxopyrrolidin-3-yl)ethyl)-2-((S)-3,3-dimethyl-2-(2,2,2-trifluoroacetamido)butanoyl)-8-fluoro-2,3,3a,4,7,7a-hexahydro-1H-4,7-methanoisoindole-1-carboxamide] | > 500 | < 100 | ≥ 10000 | < 20 | < 100 |  |  |  |
| CC(C)(C)[C@H](NC(=O)C(F)(F)F)C(=O)N1C[C@H]2[C@@H]([C@H]1C(=O)N[C@H](C#N)C[C@@H]1Oc3ccccc3NC1=O)[C@H]1C=C[C@@H]2C1 [Compound 52, (1S,3aR,4S,7R,7aS)-N-((S)-1-cyano-2-((S)-3-oxo-3,4-dihydro-2H-benzo[b][1,4]oxazin-2-yl)ethyl)-2-((S)-3,3-dimethyl-2-(2,2,2-trifluoroacetamido)butanoyl)-2,3,3a,4,7,7a-hexahydro-1H-4,7-methanoisoindole-1-carboxamide] | > 10000 | 100 to 1000 | ≥ 10000 | < 20 | 100 to 1000 |  |  |  |
| COC1(C(=O)N[C@H](C(=O)N2C[C@H]3[C@@H]([C@H]2C(=O)N[C@H](C#N)C[C@@H]2CCNC2=O)[C@H]2C=C[C@@H]3C2)C(C)(C)C)CC1 [Compound 126] | > 500 | 100 to 1000 |  | 20 to 200 | 100 to 1000 |  |  |  |
| COC1(C(=O)N[C@H](C(=O)N2C[C@H]3[C@@H]([C@H]2C(=O)N[C@H](C#N)C[C@@H]2CCNC2=O)[C@H]2C=C[C@@H]3C2)C(C)(C)C)CCC1 [Compound 127] | > 500 | 100 to 1000 |  | 20 to 200 | < 100 |  |  |  |
| CC(C)(C)[C@H](NC(=O)C(F)(F)C(F)(F)F)C(=O)N1C[C@@H]2[C@H]3C[C@@H]([C@@H]2[C@H]1C(=O)N[C@H](C#N)C[C@@H]1CCNC1=O)[C@H](F)C3 [Example 87, (1S,3aR,4S,6R,7S,7aR)—N-((S)-1-cyano-2-((S)-2-oxopyrrolidin-3-yl)ethyl)-2-((S)-3,3-dimethyl-2-(2,2,3,3,3-pentafluoropropanamido)butanoyl)-6-fluorooctahydro-1H-4,7-methanoisoindole-1-carboxamide] | > 500 | < 100 |  | < 20 | < 100 |  |  |  |
| CC(C)(C)[C@H](NC(=O)C(F)(F)F)C(=O)N1C[C@@H]2[C@@H]3C=C[C@@H]([C@H]4C[C@@H]34)[C@@H]2C1C(=O)N[C@H](C#N)C[C@@H]1CCNC1=O (stereo partly drawn) [Example 88, (3aR,4R,4aR,5aS,6S,6aS)-N-((S)-1-cyano-2-((S)-2-oxopyrrolidin-3-yl)ethyl)-2-((S)-3,3-dimethyl-2-(2,2,2-trifluoroacetamido)butanoyl)-1,2,3,3a,4,4a,5,5a,6,6a-decahydro-4,6-ethenocyclopropa[f]isoindole-1-carboxamide] | > 10000 | 100 to 1000 |  | < 20 | 100 to 1000 |  |  |  |
| CC(C)(C)[C@H](NC(=O)C(F)(F)F)C(=O)N1C[C@H]2[C@@H]([C@H]1C(=O)N[C@H](C#N)C[C@@H]1CCNC1=O)[C@H]1C=C[C@@H]2C1=O [Example 89, (1R,2R,3S,6S,7S)—N-[(1S)-1-cyano-2-[(3S)-2-oxopyrrolidin-3-yl]ethyl]-4-[(2S)-3,3-dimethyl-2-(2,2,2-trifluoroacetamido)butanoyl]-10-oxo-4-azatricyclo[5.2.1.0^{2,6}]dec-8-ene-3-carboxamide] | > 10000 | 100 to 1000 |  | < 20 | 100 to 1000 |  |  |  |
| CC(C)(C)[C@H](NC(=O)C(F)(F)F)C(=O)N1C[C@H]2[C@@H]([C@H]1C(=O)N[C@H](C#N)C[C@@H]1CCNC1=O)[C@H]1CC[C@@H]2C1(F)F [Example 92, (1S,3aS,4S,7R,7aR)—N-((S)-1-cyano-2-((S)-2-oxopyrrolidin-3-yl)ethyl)-2-((S)-3,3-dimethyl-2-(2,2,2-trifluoroacetamido)butanoyl)-8,8-difluorooctahydro-1H-4,7-methanoisoindole-1-carboxamide] | > 500 | 100 to 1000 |  | 20 to 200 | 100 to 1000 |  |  |  |
| C[C@H]1[C@H]2[C@@H]([C@@H](C(=O)N[C@H](C#N)C[C@@H]3CCNC3=O)N1C(=O)[C@@H](NC(=O)C(F)(F)F)C(C)(C)C)[C@H]1C=C[C@@H]2C1 [Example 93, (1R,2S,3S,5S,6R,7S)—N-[(1S)-1-cyano-2-[(3S)-2-oxopyrrolidin-3-yl]ethyl]-4-[(2S)-3,3-dimethyl-2-(2,2,2-trifluoroacetamido)butanoyl]-5-methyl-4-azatricyclo[5.2.1.0^{2,6}]dec-8-ene-3-carboxamide] | > 500 | < 100 |  | < 20 | < 100 |  |  |  |
| N#C[C@H](C[C@@H]1CCNC1=O)NC(=O)[C@@H]1[C@@H]2[C@H](CN1C(=O)[C@H](CC1CCC1)NC(=O)C(F)(F)F)[C@@H]1C=C[C@H]2C1 [Example 95] | > 10000 | < 100 |  | < 20 | < 100 |  |  |  |
| CC(C)(C)[C@H](NC(=O)C(F)(F)F)C(=O)N1C[C@@H]2[C@H]3C[C@H](C[C@@H]3F)[C@@H]2[C@H]1C(=O)N[C@H](C#N)C[C@@H]1CCNC1=O [Example 96] | > 500 | 100 to 1000 |  | 20 to 200 | 100 to 1000 |  |  |  |
| C=C(C)C(C)(C)[C@H](NC(=O)C(F)(F)F)C(=O)N1C[C@H]2[C@@H]([C@H]1C(=O)N[C@H](C#N)C[C@@H]1CCNC1=O)[C@H]1C=C[C@@H]2C1 [Example 97] | > 10000 | < 100 |  | < 20 | < 100 |  |  |  |
| C[C@@H](OC(F)F)[C@H](NC(=O)C(F)(F)F)C(=O)N1C[C@H]2[C@@H]([C@H]1C(=O)N[C@H](C#N)C[C@@H]1CCNC1=O)[C@H]1C=C[C@@H]2C1 [Example 98, (1S,3aR,4S,7R,7aS)-N-((S)-1-cyano-2-((S)-2-oxopyrrolidin-3-yl)ethyl)-2-(O-(difluoromethyl)-N-(2,2,2-trifluoroacetyl)-L-threonyl)-2,3,3a,4,7,7a-hexahydro-1H-4,7-methanoisoindole-1-carboxamide] | > 500 | < 100 |  | < 20 | < 100 |  |  |  |
